Results from patent US20210115040A1, “OGA INHIBITOR COMPOUNDS” (Janssen Pharmaceutica NV, priority 2018, published 2021).

Molecular target: T1, OGA (Mus musculus, UniProt Q9EQQ9)
T1 construct: from tissue; host or cells: mouse brain (sagittal sections, forebrain area)
T1 sequence (Q9EQQ9 1-916): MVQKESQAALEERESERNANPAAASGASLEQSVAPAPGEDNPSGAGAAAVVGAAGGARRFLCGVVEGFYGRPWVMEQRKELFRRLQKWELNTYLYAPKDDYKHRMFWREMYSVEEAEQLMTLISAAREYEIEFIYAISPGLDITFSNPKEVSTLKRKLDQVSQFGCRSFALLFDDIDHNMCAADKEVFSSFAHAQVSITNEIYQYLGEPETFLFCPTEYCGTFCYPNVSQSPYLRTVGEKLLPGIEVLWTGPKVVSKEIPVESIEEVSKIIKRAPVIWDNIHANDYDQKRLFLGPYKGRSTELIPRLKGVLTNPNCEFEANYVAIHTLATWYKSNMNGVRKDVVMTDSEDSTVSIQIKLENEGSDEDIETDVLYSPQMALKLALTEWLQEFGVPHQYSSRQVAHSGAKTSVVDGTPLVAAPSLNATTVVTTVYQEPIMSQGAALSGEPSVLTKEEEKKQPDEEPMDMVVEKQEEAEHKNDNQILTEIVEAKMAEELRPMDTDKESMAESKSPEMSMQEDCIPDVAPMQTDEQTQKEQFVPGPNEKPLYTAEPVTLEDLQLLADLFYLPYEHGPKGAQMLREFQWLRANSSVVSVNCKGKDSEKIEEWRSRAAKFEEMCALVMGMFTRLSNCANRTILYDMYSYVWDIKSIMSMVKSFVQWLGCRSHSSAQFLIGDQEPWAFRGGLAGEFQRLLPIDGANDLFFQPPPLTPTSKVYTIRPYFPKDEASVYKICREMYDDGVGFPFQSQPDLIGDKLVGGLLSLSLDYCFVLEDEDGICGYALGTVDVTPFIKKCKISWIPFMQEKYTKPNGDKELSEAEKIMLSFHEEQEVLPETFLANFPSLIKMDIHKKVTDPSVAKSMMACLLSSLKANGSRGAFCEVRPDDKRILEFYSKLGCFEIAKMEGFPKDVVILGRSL
Test: Ex vivo OGA occupancy assay using [3H]-ligand (brain sections, autoradiography)
Type: in vivo
Conditions: po, Male NMRI or C57Bl6j mice, p.o., 24 h after administration, forebrain area, normalised to vehicle, read-out: Occupancy (% +/- sd)
Procedure: Male NMRI or C57Bl6j mice were treated by oral (p.o.) administration of vehicle or compound. Animals were sacrificed 24 hours after administration. Brains were immediately removed from the skull, hemispheres were separated and the right hemisphere, for ex vivo OGA occupancy assay, was rapidly frozen in dry-ice cooled 2-methylbutane (−40° C.). Twenty […]m-thick sagittal sections were cut using a Leica CM 3050 cryostat-microtome (Leica, Belgium), thaw-mounted on microscope slides (SuperFrost Plus Slides, Thermo Fisher Scientific) and stored at −20° C. until use. After thawing, sections were dried under a cold stream of air. The sections were not washed prior to incubation. The 10 minutes incubation with 3 nM [^3H]-ligand was rigorously controlled. All brain sections (from compound-treated and vehicle-treated animals) were incubated in parallel. After incubation, the excess of [^3H]-ligand was washed off in ice-cold buffer (PBS 1× and 1% BSA) 2 times 10 minutes, followed by a quick dip in distilled water. The sections were then dried under a stream of cold air.
Radioactivity in the forebrain area of brain slices was measured using a β-imager with M3 vision analysis software (Biospace Lab, Paris). Specific binding was calculated as the difference between total binding and non-specific binding measured in Thiamet-G (10 μM) treated sections. […]

receptor occupancy at 25 mg/kg: 3.33%
Compound: Cc1cc(C2CCCN(C(C)c3ccc4sc(C)nc4n3)C2)cc(C)n1 (racemic) [Compound 39]
